Experimental data: PubChem BioAssay AID330 (DTP/NCI, 2004)
Several values for one entry are separate records, joined by “and”; a condition that tells them apart may be missing. Equal entries are not always repeated. Inconclusive results and toxic doses are left out.

Tested on: P388 leukemia ip, CD2F1 mice, survival T/C
Experiment: NCI In Vivo Anticancer Drug Screen. Data for tumor model P388 Leukemia (intraperitoneal) in CD2F1 (CDF1) mice
Details: endpoint: median survival time, higher = longer survival
Outline: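 Mice carrying the transplanted tumor received test compound or vehicle. Survival was recorded in each group, and the value is the treated-group measurement divided by that of the vehicle-treated control group.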

[1] = dose: 60.0 mg/kg/injection, schedule: Q01DX005 (ip), vehicle: Klucel (hydroxypropylcellulose) (HPC)
[2] = dose: 120.0 mg/kg/injection, schedule: Q01DX005 (ip), vehicle: Klucel (hydroxypropylcellulose) (HPC)
[3] = dose: 240.0 mg/kg/injection, schedule: Q01DX005 (ip), vehicle: Klucel (hydroxypropylcellulose) (HPC)
[4] = dose: 50.0 mg/kg/injection, schedule: Q01DX009 (ip), vehicle: saline
[5] = dose: 100.0 mg/kg/injection, schedule: Q01DX009 (ip), vehicle: saline
[6] = dose: 200.0 mg/kg/injection, schedule: Q01DX009 (ip), vehicle: saline
[7] = dose: 60.0 mg/kg/injection, schedule: Q01DX005 (ip), vehicle: saline with Tween-80
[8] = dose: 120.0 mg/kg/injection, schedule: Q01DX005 (ip), vehicle: saline with Tween-80
[9] = dose: 240.0 mg/kg/injection, schedule: Q01DX005 (ip), vehicle: saline with Tween-80
[10] = dose: 50.0 mg/kg/injection, schedule: Q01DX009 (ip), vehicle: saline with Tween-80
[11] = dose: 100.0 mg/kg/injection, schedule: Q01DX009 (ip), vehicle: saline with Tween-80
[12] = dose: 50.0 mg/kg/injection, schedule: Q01DX005 (ip), vehicle: saline with Tween-80
[13] = dose: 100.0 mg/kg/injection, schedule: Q01DX005 (ip), vehicle: saline with Tween-80
[14] = dose: 200.0 mg/kg/injection, schedule: Q01DX005 (ip), vehicle: saline with Tween-80
[15] = dose: 50.0 mg/kg/injection, schedule: Q01DX005 (ip), vehicle: saline
[16] = dose: 100.0 mg/kg/injection, schedule: Q01DX001 (ip), vehicle: saline
[17] = dose: 50.0 mg/kg/injection, schedule: Q01DX009 (ip), vehicle: Klucel (hydroxypropylcellulose) (HPC)
[18] = dose: 100.0 mg/kg/injection, schedule: Q01DX009 (ip), vehicle: Klucel (hydroxypropylcellulose) (HPC)
[19] = dose: 200.0 mg/kg/injection, schedule: Q01DX009 (ip), vehicle: Klucel (hydroxypropylcellulose) (HPC)

Structure (SMILES): C=C1C(C2=[N+]([O-])CCN2O)OC2OC(C)(C)OC12 (stereo unspecified)
- T/C [1]: 93 % of control
- T/C [2]: 101 % of control
- T/C [3]: 101 % of control

Structure (SMILES): CN(C)C1C(O)C2Oc3c(cc(O)c4c3C(=O)c3cc5c(c(O)c3C4=O)CCC(C)(O)C5)C(C)(O2)C1O (stereo unspecified)
- T/C (dose: 12.5 mg/kg/injection, schedule: Q04DX003 (ip), vehicle: other): 112 % of control
- T/C (dose: 25.0 mg/kg/injection, schedule: Q04DX003 (ip), vehicle: other): 113 % of control
- T/C (dose: 50.0 mg/kg/injection, schedule: Q04DX003 (ip), vehicle: other): 118 % of control
- T/C (dose: 100.0 mg/kg/injection, schedule: Q04DX003 (ip), vehicle: other): 122 % of control

Structure (SMILES): O=C(O)C1CSC2(CCCN(Cc3ccccc3)C2)N1 (stereo unspecified)
- T/C [4]: 96 % of control
- T/C [5]: 106 % of control
- T/C [6]: 113 % of control

Structure (SMILES): CCOC(=O)C(NC(=O)C(CO)n1c(-c2ccccc2)c(-c2ccccc2)oc1=O)C(=O)OCC (stereo unspecified)
- T/C [7]: 105 % of control
- T/C [8]: 104 % of control
- T/C [9]: 90 % of control

Structure (SMILES): [CH3][Ge]([Cl])([c]1ccccc1)[c]1cccc2ccccc12 (stereo unspecified)
- T/C (dose: 100.0 mg/kg/injection, schedule: Q04DX003 (ip), vehicle: saline): 102 % of control
- T/C (dose: 200.0 mg/kg/injection, schedule: Q04DX003 (ip), vehicle: saline): 97 % of control
- T/C (dose: 400.0 mg/kg/injection, schedule: Q04DX003 (ip), vehicle: saline): 101 % of control

Structure (SMILES): CCCCOc1ccc(OCc2ccc(C)cc2)cc1
- T/C [10]: 114 % of control
- T/C [11]: 114 % of control
- T/C (dose: 200.0 mg/kg/injection, schedule: Q01DX009 (ip), vehicle: saline with Tween-80): 91 % of control

Structure (SMILES): COc1ccc(OC(=O)Nc2cc(Cl)c(OC)cc2OC)c(Cl)c1
- T/C (dose: 50.0 mg/kg/injection, schedule: Q01DX009 (ip), vehicle: saline + alcohol): 98 % of control
- T/C (dose: 100.0 mg/kg/injection, schedule: Q01DX009 (ip), vehicle: saline + alcohol): 105 % of control
- T/C (dose: 200.0 mg/kg/injection, schedule: Q01DX009 (ip), vehicle: saline + alcohol): 96 % of control

Structure (SMILES): O=[N+]([O-])/C=C/c1cc(Br)c(O)c(Br)c1
- T/C [4]: 96 % of control
- T/C [5]: 115 % of control
- T/C [6]: 96 % of control

Structure (SMILES): CCOCCOC(=O)Nc1c(Cl)cccc1Cl
- T/C [7]: 101 % of control
- T/C [8]: 96 % of control
- T/C [9]: 95 % of control

Structure (SMILES): CN(C)c1ccc(/[N+]([O-])=N/N2C(=O)c3ccccc3C2=O)cc1
- T/C (dose: 25.0 mg/kg/injection, schedule: Q01DX005 (ip), vehicle: Klucel (hydroxypropylcellulose) (HPC)): 105 % of control
- T/C (dose: 50.0 mg/kg/injection, schedule: Q01DX005 (ip), vehicle: Klucel (hydroxypropylcellulose) (HPC)): 97 % of control
- T/C (dose: 100.0 mg/kg/injection, schedule: Q01DX005 (ip), vehicle: Klucel (hydroxypropylcellulose) (HPC)): 101 % of control
- T/C (dose: 200.0 mg/kg/injection, schedule: Q01DX005 (ip), vehicle: Klucel (hydroxypropylcellulose) (HPC)): 110 % of control

Structure (SMILES): CCC(C)c1cc(/C=C2/OC(=O)c3ccccc32)cc(C(C)CC)c1O (stereo unspecified)
- T/C (dose: 100.0 mg/kg/injection, schedule: Q04DX002 (ip), vehicle: saline): 100 % of control
- T/C (dose: 200.0 mg/kg/injection, schedule: Q04DX002 (ip), vehicle: saline): 99 % of control
- T/C (dose: 400.0 mg/kg/injection, schedule: Q04DX002 (ip), vehicle: saline): 93 % of control

Structure (SMILES): COc1ccc2c(c1)c(=O)c(C(=O)O)cn2CCCOc1ccc([N+](=O)[O-])cc1
- T/C [1]: 88 % of control
- T/C [2]: 93 % of control
- T/C [3]: 89 % of control

Structure (SMILES): N#CC1C(c2ccc(Cl)cc2)C(C(N)=O)C(=O)NC1(O)c1ccccc1 (stereo unspecified)
- T/C (dose: 100.0 mg/kg/injection, schedule: Q04DX002 (ip), vehicle: Klucel (hydroxypropylcellulose) (HPC)): 100 % of control
- T/C (dose: 200.0 mg/kg/injection, schedule: Q04DX002 (ip), vehicle: Klucel (hydroxypropylcellulose) (HPC)): 99 % of control
- T/C (dose: 400.0 mg/kg/injection, schedule: Q04DX002 (ip), vehicle: Klucel (hydroxypropylcellulose) (HPC)): 98 % of control

Structure (SMILES): O=c1nc2ccccc2c2n1CCN2
- T/C [12]: 105 % of control
- T/C [13]: 101 % of control
- T/C [14]: 100 % of control

Structure (SMILES): CCN(CC)CCSS(=O)(=O)CCN(CC)CC
- T/C [15]: 100 % of control
- T/C (dose: 100.0 mg/kg/injection, schedule: Q01DX005 (ip), vehicle: saline): 109 % of control

Structure (SMILES): Cc1ccc(NC(=O)CCC(=O)NS(C)(=O)=O)cc1
- T/C (dose: 100.0 mg/kg/injection, schedule: Q01DX001 (ip), vehicle: saline with Tween-80): 94 % of control
- T/C (dose: 200.0 mg/kg/injection, schedule: Q01DX001 (ip), vehicle: saline with Tween-80): 94 % of control
- T/C (dose: 400.0 mg/kg/injection, schedule: Q01DX001 (ip), vehicle: saline with Tween-80): 95 % of control

Structure (SMILES): C=C1CC2(CC(C(=C)C)CC=C2C)OC1=O (stereo unspecified)
- T/C [16]: 101 % of control
- T/C (dose: 200.0 mg/kg/injection, schedule: Q01DX001 (ip), vehicle: saline): 104 % of control
- T/C (dose: 400.0 mg/kg/injection, schedule: Q01DX001 (ip), vehicle: saline): 109 % of control

Structure (SMILES): [Cl][Pd][Cl].[NH-]C(CO)C(=O)O (stereo unspecified)
- T/C (dose: 12.5 mg/kg/injection, schedule: Q01DX005 (ip), vehicle: saline): 94 % of control
- T/C (dose: 25.0 mg/kg/injection, schedule: Q01DX005 (ip), vehicle: saline): 102 % of control
- T/C [15]: 106 % of control and 98 % of control

Structure (SMILES): CNC(=S)SCc1ccccc1
- T/C [10]: 99 % of control
- T/C [11]: 110 % of control

Structure (SMILES): COC1/C=C\OC2(C)Oc3c(C)c(O)c4c(O)c(c5c(c4c3C2=O)NC2(CCN(C)CC2)N=5)=NC(=O)/C(C)=C\C=C\C(C)C(O)C(C)C(O)C(C)C(OC(C)=O)C1C (stereo unspecified)
- T/C (dose: 25.0 mg/kg/injection, schedule: Q01DX009 (ip), vehicle: Klucel (hydroxypropylcellulose) (HPC)): 100 % of control
- T/C [17]: 100 % of control
- T/C [18]: 102 % of control
- T/C [19]: 94 % of control

Structure (SMILES): CCNCCC1(C)Oc2ccccc2O1
- T/C [16]: 97 % of control

Structure (SMILES): CC1(C)CC(=O)C=C(NCCCCCCNC2=CC(=O)CC(C)(C)C2)C1
- T/C [17]: 113 % of control
- T/C [18]: 103 % of control
- T/C [19]: 95 % of control

Structure (SMILES): CCOCC(=O)N[C@H]1CCc2cc(OC)c(OC)c(OC)c2-c2ccc(SC)c(=O)cc21
- T/C (dose: 0.75 mg/kg/injection, schedule: Q01DX009 (ip), vehicle: Klucel (hydroxypropylcellulose) (HPC)): 158 % of control and 161 % of control
- T/C (dose: 1.5 mg/kg/injection, schedule: Q01DX009 (ip), vehicle: Klucel (hydroxypropylcellulose) (HPC)): 193 % of control and 229 % of control

Structure (SMILES): COC(C(N)=O)c1ccccc1 (stereo unspecified)
- T/C (dose: 12.5 mg/kg/injection, schedule: Q01DX009 (ip), vehicle: saline): 120 % of control
- T/C (dose: 25.0 mg/kg/injection, schedule: Q01DX009 (ip), vehicle: saline): 110 % of control
- T/C [4]: 103 % of control
- T/C [6]: 103 % of control
- T/C (dose: 400.0 mg/kg/injection, schedule: Q01DX009 (ip), vehicle: saline): 106 % of control

Structure (SMILES): CCOc1ccccc1NC(=O)CC(=O)N1N=C(C)C(N=Nc2ccccc2C(=O)O)C1=O (stereo unspecified)
- T/C [12]: 108 % of control
- T/C [13]: 104 % of control
- T/C [14]: 92 % of control

Structure (SMILES): Cn1c(=O)n2n(c1=O)C1C3C4C5C3C13COCC53C42 (stereo unspecified)
- T/C [17]: 97 % of control
- T/C [18]: 97 % of control
- T/C [19]: 100 % of control

Structure (SMILES): COc1ccc(C(c2cc3c(cc2O)OCO3)N2CCCCC2)cc1OC (stereo unspecified)
- T/C [7]: 107 % of control
- T/C [8]: 110 % of control
- T/C [9]: 120 % of control

Structure (SMILES): COC1OCC(NC(=O)c2ccccc2)C(OS(C)(=O)=O)C1OS(C)(=O)=O (stereo unspecified)
- T/C (dose: 12.5 mg/kg/injection, schedule: Q01DX009 (ip), vehicle: other): 97 % of control
- T/C (dose: 25.0 mg/kg/injection, schedule: Q01DX009 (ip), vehicle: other): 87 % of control
- T/C (dose: 50.0 mg/kg/injection, schedule: Q01DX009 (ip), vehicle: other): 106 % of control
- T/C (dose: 100.0 mg/kg/injection, schedule: Q01DX009 (ip), vehicle: other): 95 % of control
- T/C (dose: 200.0 mg/kg/injection, schedule: Q01DX009 (ip), vehicle: other): 88 % of control
